According to patent US20250304549A1, “HYDROXYAMIDE DERIVATIVE AND USE THEREOF” (SICHUAN HUIYU PHARMACEUTICAL CO., LTD., priority 2022, published 2025):
pIC50: −log10 of the molar value. Structures can show the parent of a compound that is named as a salt.

What was measured:
NCI-H526 cells = assay: In vitro cell inhibition assay - NCI-H526 cell proliferation (CellTiter-Glo); format: cell-based; conditions: Homo sapiens, NCI-H526, 120 h, H526 small cell lung cancer cell proliferation, 5 days
Procedure, shortened: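 NCI-H526 cells plated at 1×10^3 per well overnight, then treated with 8 concentrations (5-fold dilutions) in RPMI-640 with 10% FBS for 5 days at 37° C., 5% CO2. Viable cells quantified by CellTiter-Glo luminescence; IC50 fitted from inhibition rates relative to no-inhibitor and no-cell controls.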

LSD1 = LSD1 (Homo sapiens (Human), UniProt O60341); assay: In vitro enzyme inhibition assay - LSD1 (HTRF); format: biochemical
pan-HDAC = assay: In vitro enzyme inhibition assay - HDAC (HDAC-Glo I/II), pan-HDAC; format: biochemical
Procedure, shortened: (§1)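 The compound, serially diluted 5-fold in DMSO across 8 concentrations starting from a 1 mM stock, was made up as 4× working solutions in HDAC buffer. It was then tested in the HDAC-Glo I/II system, and luminescence was recorded. IC50 values came from variable-slope four-parameter curves of inhibition rate.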

NCI-H1417 cells = assay: In vitro cell inhibition assay - H1417 cell proliferation (CellTiter-Glo); format: cell-based; conditions: Homo sapiens, NCI-H1417, H1417 small cell lung cancer cell proliferation
Procedure, shortened: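 Cells exposed to 8 compound concentrations (5-fold dilutions) in BEGM with 10% FBS for 7 days at 37° C., 5% CO2. Viable cells measured by CellTiter-Glo luminescence; inhibition versus no-inhibitor and no-cell controls, IC50 fitted.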

HDAC1 = HDAC1 (Homo sapiens (Human), UniProt Q13547); assay: In vitro enzyme inhibition assay - HDAC (HDAC-Glo I/II), HDAC1; format: biochemical; conditions: read-out: HDAC IC50 (nM) HDAC 1
HDAC1, sequence (Q13547 whole entry): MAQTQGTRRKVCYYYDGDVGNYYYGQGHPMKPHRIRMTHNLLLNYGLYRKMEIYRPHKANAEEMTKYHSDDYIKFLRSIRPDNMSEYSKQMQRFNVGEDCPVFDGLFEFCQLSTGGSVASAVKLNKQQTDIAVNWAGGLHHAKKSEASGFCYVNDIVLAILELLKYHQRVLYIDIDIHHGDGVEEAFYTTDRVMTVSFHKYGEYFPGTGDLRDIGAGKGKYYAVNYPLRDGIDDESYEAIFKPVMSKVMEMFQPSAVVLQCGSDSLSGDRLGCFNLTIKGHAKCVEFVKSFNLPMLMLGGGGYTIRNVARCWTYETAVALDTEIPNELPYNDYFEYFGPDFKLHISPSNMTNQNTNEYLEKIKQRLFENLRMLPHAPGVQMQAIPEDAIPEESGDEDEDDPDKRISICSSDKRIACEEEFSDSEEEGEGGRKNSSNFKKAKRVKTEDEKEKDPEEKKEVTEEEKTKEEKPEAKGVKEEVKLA
Procedure, shortened: as §1

NCI-H69 cells = assay: In vitro cell inhibition assay - NCI-H69 cell proliferation (CellTiter-Glo); format: cell-based; conditions: Homo sapiens, NCI-H69, H69 small cell lung cancer cell proliferation
Procedure, shortened: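 NCI-H69 cells seeded at 1×10^3 per well overnight, then given 8 compound concentrations (5-fold dilutions) in RPMI-640 with 20% FBS for 7 days at 37° C., 5% CO2. Viable cells by CellTiter-Glo luminescence; IC50 fitted from inhibition rate versus no-inhibitor and no-cell controls.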

DU145 cells = assay: In vitro cell inhibition assay - DU145 cell proliferation (CellTiter-Glo); format: cell-based; conditions: Homo sapiens, DU-145, Du145 prostate cancer cell proliferation
Procedure, shortened: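 DU145 cells were seeded at 1×10^3 per well, exposed next day to an 8-point, 5-fold compound dilution series in RPMI-640 with 10% FBS, and incubated 6 days at 37° C. Viable cells were measured by CellTiter-Glo luminescence, and IC50 was fitted from inhibition rates relative to no-inhibitor and no-cell controls.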

HDAC8 = HDAC8 (Homo sapiens (Human), UniProt Q9BY41); assay: In vitro enzyme inhibition assay - HDAC (HDAC-Glo I/II), HDAC8; format: biochemical; conditions: read-out: HDAC IC50 (nM) HDAC 8
HDAC8, sequence (Q9BY41 whole entry): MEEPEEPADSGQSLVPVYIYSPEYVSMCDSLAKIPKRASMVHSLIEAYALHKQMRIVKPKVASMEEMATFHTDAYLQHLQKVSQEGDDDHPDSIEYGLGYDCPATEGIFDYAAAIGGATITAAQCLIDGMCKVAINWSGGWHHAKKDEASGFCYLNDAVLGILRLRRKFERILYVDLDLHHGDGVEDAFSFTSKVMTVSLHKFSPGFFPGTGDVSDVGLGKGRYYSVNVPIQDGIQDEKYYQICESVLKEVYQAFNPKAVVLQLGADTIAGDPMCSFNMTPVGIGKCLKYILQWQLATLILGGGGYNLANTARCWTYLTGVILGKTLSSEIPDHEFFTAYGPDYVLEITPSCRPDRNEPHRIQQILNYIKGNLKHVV
Procedure, shortened: as §1

| SMILES | pIC50 (NCI-H526 cells) | pIC50 (LSD1) | IC50 (pan-HDAC) | pIC50 (NCI-H1417 cells) | IC50 (HDAC1) | pIC50 (NCI-H69 cells) | pIC50 (DU145 cells) | IC50 (HDAC8) |
| --- | --- | --- | --- | --- | --- | --- | --- | --- |
| N#Cc1ccc(-c2c(-c3ccc(CO)c(O)c3)cnc(N3CCC(NCc4ccc(/C=C/C(=O)NO)cc4)CC3)c2C#N)cc1F [Example 131, (E)-3-(4-(((1-(3-Cyano-4-(4-cyano-3-fluorophenyl)-5-(3-hydroxy-4-(hydroxymethyl)phenyl)pyridin-2-yl)piperidin-4-yl)amino)methyl)phenyl)-N-hydroxyacrylamide formate] | 8.45 | 8.88 | 1.57 nM | 9.21 | 0.22 nM | 8.59 | 8.15 | 46.6 nM |
| COc1ccc(-c2cnc(N3CCC(NCc4cnc(/C=C/C(=O)NO)cn4)CC3)c(C#N)c2-c2ccc(C#N)c(F)c2)cc1O [Example 133, (E)-3-(5-(((1-(3-Cyano-4-(4-cyano-3-fluorophenyl)-5-(3-hydroxy-4-methoxyphenyl)pyridin-2-yl)piperidin-4-yl)amino)methyl)pyrazin-2-yl)-N-hydroxyacrylamide trifluoroacetate] | 7.34 | 7.66 | 11.8 nM | 8.27 | 1.45 nM | 7.59 | 6.89 | 140 nM |
| COc1ccc(-c2cnc(N3CCC(NCc4ccc(/C=C/C(=O)NO)cc4)CC3)c(C#N)c2-c2ccc(C#N)cc2F)cc1O [Example 134, (E)-3-(4-(((1-(3-Cyano-4-(4-cyano-2-fluorophenyl)-5-(3-hydroxy-4-methoxyphenyl)pyridin-2-yl)piperidin-4-yl)amino)methyl)phenyl)-N-hydroxyacrylamide formate] | 7.86 | 7.87 | 3.55 nM | 8.29 | 0.32 nM | 8.08 | 7.69 | 46 nM |
| COc1ccc(-c2cnc(N3CCC(NCc4ncc(/C=C/C(=O)NO)cn4)CC3)c(C#N)c2-c2ccc(C#N)c(F)c2)cc1O [Example 135, (E)-3-(2-(((1-(3-Cyano-4-(4-cyano-3-fluorophenyl)-5-(3-hydroxy-4-methoxyphenyl)pyridin-2-yl)piperidin-4-yl)amino)methyl)pyrimidin-5-yl)-N-hydroxyacrylamide formate] | 6.70 | 8.50 | 39.7 nM | 8.22 | 17.3 nM | 6.70 | 5.80 | 1010 nM |
| N#Cc1ccc(-c2c(-c3ccc(O)c(O)c3)cnc(N3CCC(NCc4ccc(/C=C/C(=O)NO)cc4)CC3)c2C#N)cc1F [Example 137, (E)-3-(4-(((1-(3-Cyano-4-(4-cyano-3-fluorophenyl)-5-(3,4-dihydroxyphenyl)pyridin-2-yl)piperidin-4-yl)amino)methyl)phenyl)-N-hydroxyacrylamide hydrochloride] | 7.64 | 7.56 | 6.04 nM | 8.27 | 0.52 nM | 8.15 | 7.20 | 107 nM |
| CC(C)(O)COc1ccc(-c2cnc(N3CCC(NCc4ccc(/C=C/C(=O)NO)cc4)CC3)c(C#N)c2-c2ccc(C#N)c(F)c2)cc1O [Example 143, (E)-3-(4-(((1-(3-Cyano-4-(4-cyano-3-fluorophenyl)-5-(3-hydroxy-4-(2-hydroxy-2-methylpropoxy)phenyl)pyridin-2-yl)piperidin-4-yl)amino)methyl)phenyl)-N-hydroxyacrylamide formate] | 7.74 | 10.00 | 1.7 nM | 8.99 | 1.25 nM | 7.77 | 7.63 | 111 nM |
| COc1ccc(-c2cnc(N3CCC(NCc4ccc(/C=C/C(=O)NO)cc4)CC3)c(C)c2-c2ccc(C#N)c(F)c2)cc1O [Example 144, (E)-3-(4-(((1-(4-(4-Cyano-3-fluorophenyl)-5-(3-hydroxy-4-methoxyphenyl)-3-methylpyridin-2-yl)piperidin-4-yl)amino)methyl)phenyl)-N-hydroxyacrylamide hydrochloride] | 8.08 | 8.97 | 0.86 nM | 7.95 | 0.21 nM | 7.95 | 8.03 | 91.6 nM |
| COc1ccc(-c2cnc(N3CCC(NCc4ccc(/C=C/C(=O)NO)cc4)CC3)c(C#N)c2-c2ccc([N+](=O)[O-])cc2)cc1O [Example 150, (E)-3-(4-(((1-(3-Cyano-5-(3-hydroxy-4-methoxyphenyl)-4-(4-nitrophenyl)pyridin-2-yl)piperidin-4-yl)amino)methyl)phenyl)-N-hydroxyacrylamide formate] | 8.01 | 9.23 | 1.3 nM | 8.26 | 0.21 nM | 7.77 | 8.03 | 89.3 nM |
